# Measurements: patent US10076519B2 (CYTOKINETICS, INC., priority 2010, dated 2018)
# Test system: rabbit skeletal myofibrils (fast skeletal myofibrils)
# Experiment: Activation of fast skeletal myofibrils (PUMA assay, PK/LDH-coupled ATPase at pCa25)
# Type: biochemical
# Conditions: AC1.4 determined according to the procedure of Example 39; reported as class symbols
# Procedure, shortened: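 Detergent-washed rabbit psoas myofibrils (~90% fast fibres, calcium-regulated) assayed at calcium giving 25% of maximal ATPase rate (pCa25). ADP turnover coupled via pyruvate kinase/lactate dehydrogenase to NADH oxidation, read at 340 nm. Buffer 12 mM PIPES, 2 mM MgCl2, 1 mM DTT, pH 6.8; AC1.4 values derived.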
row,SMILES,Mean AC1.4
1,CC(C)(CNc1ccc(-c2cccc(C(N)=O)c2)nn1)c1ncccc1F [3-(6-{[2-(3-fluoro(2-pyridyl))-2-methylpropyl]amino}pyridazin-3-yl)benzamide],B (B=1-10 uM)
2,CC(C)(CNc1ccc(-c2cccc(C(N)=O)c2)nn1)c1cccc(F)c1 [3-(6-{[2-(3-fluorophenyl)-2-methylpropyl]amino}pyridazin-3-yl)benzamide],A (A=<1 uM)
3,CC(C)(CNc1ccc(-c2cccc(C(N)=O)c2)nn1)c1ccc(Cl)cc1 [3-(6-{[2-(4-chlorophenyl)-2-methylpropyl]amino}pyridazin-3-yl)benzamide],B (B=1-10 uM)
4,Cc1cc(NCC(C)(C)c2ccc(F)cc2)nnc1-c1cccc(C(N)=O)c1 [3-(6-{[2-(4-fluorophenyl)-2-methylpropyl]amino}-4-methylpyridazin-3-yl)benzamide],B (B=1-10 uM)
5,Cc1cc(NCC(C)(C)c2ccc(F)cc2)nnc1-c1cccc(C#N)c1 [3-(6-{[2-(4-fluorophenyl)-2-methylpropyl]amino}-4-methylpyridazin-3-yl)benzenecarbonitrile],B (B=1-10 uM)
6,Cc1cc(-c2cccc(C(N)=O)c2)nnc1NCC(C)(C)c1ccc(F)cc1 [3-(6-{[2-(4-fluorophenyl)-2-methylpropyl]amino}-5-methylpyridazin-3-yl)benzamide],B (B=1-10 uM)
7,Cc1cc(-c2cccc(C#N)c2)nnc1NCC(C)(C)c1ccc(F)cc1 [3-(6-{[2-(4-fluorophenyl)-2-methylpropyl]amino}-5-methylpyridazin-3-yl)benzenecarbonitrile],C (C=10-20 uM)
8,"CC(C)(CNc1ccc(-c2noc(C(N)=O)n2)nn1)c1ccc(F)cc1 [3-(6-{[2-(4-fluorophenyl)-2-methylpropyl]amino}pyridazin-3-yl)-1,2,4-oxadiazole-5-carboxamide]",C (C=10-20 uM)
9,CC(C)(CNc1ccc(-c2cccc(C(N)=O)c2)nn1)c1ccc(F)cc1 [3-(6-{[2-(4-fluorophenyl)-2-methylpropyl]amino}pyridazin-3-yl)benzamide],A (A=<1 uM)
10,CC(C)(CNc1ccc(-c2cccc(C#N)c2)nn1)c1ccc(F)cc1 [3-(6-{[2-(4-fluorophenyl)-2-methylpropyl]amino}pyridazin-3-yl)benzenecarbonitrile],B (B=1-10 uM)
11,CC(C)(CNc1ccc(-c2cccc(C(=O)N3CCOCC3)c2)nn1)c1ccc(F)cc1 [3-(6-{[2-(4-fluorophenyl)-2-methylpropyl]amino}pyridazin-3-yl)phenyl morpholin-4-yl ketone],B (B=1-10 uM)
12,CC(C)(CNc1ccc(-c2cccc(C(=O)c3ccccc3)c2)nn1)c1ccc(F)cc1 [3-(6-{[2-(4-fluorophenyl)-2-methylpropyl]amino}pyridazin-3-yl)phenyl phenyl ketone],D (D=>20 uM)
13,CC(C)(CNc1ccc(-c2cccc(C(=O)N3CCNCC3)c2)nn1)c1ccc(F)cc1 [3-(6-{[2-(4-fluorophenyl)-2-methylpropyl]amino}pyridazin-3-yl)phenyl piperazinyl ketone],B (B=1-10 uM)
14,CC(C)(CNc1ccc(-c2cccc(C(=O)N3CCCCC3)c2)nn1)c1ccc(F)cc1 [3-(6-{[2-(4-fluorophenyl)-2-methylpropyl]amino}pyridazin-3-yl)phenyl piperidyl ketone],B (B=1-10 uM)
15,CC(C)(CNc1ccc(-c2cccnc2O)nn1)c1ccc(F)cc1 [3-(6-{[2-(4-fluorophenyl)-2-methylpropyl]amino}pyridazin-3-yl)pyridin-2-ol],B (B=1-10 uM)
16,CC(C)(CNc1ccc(-c2cccc(C(N)=O)c2)nn1)c1ccc(F)cn1 [3-(6-{[2-(5-fluoro(2-pyridyl))-2-methylpropyl]amino}pyridazin-3-yl)benzamide],C (C=10-20 uM)
17,NC(=O)c1cccc(-c2ccc(NCC3(C(N)=O)CCC3)nn2)c1 [3-(6-{[(carbamoylcyclo-butyl)methyl]amino}pyridazin-3-yl)benzamide],D (D=>20 uM)
18,"CC1(C)CN(c2ccc(-c3cccc(C(N)=O)c3)nn2)c2ccccc21 [3-[6-(3,3-dimethylindolinyl)pyridazin-3-yl]benzamide]",D (D=>20 uM)
19,NC(=O)c1cccc(-c2ccc(NC3Cc4ccccc4C3)nn2)c1 [3-[6-(indan-2-ylamino)pyridazin-3-yl]benzamide],D (D=>20 uM)
20,CC(=O)N1CC(CNc2ccc(-c3cccc(C(N)=O)c3)nn2)(c2ncccc2F)C1 [3-[6-({[1-acetyl-3-(3-fluoro(2-pyridyl))azetidin-3-yl]methyl}amino)pyridazin-3-yl]benzamide],D (D=>20 uM)
21,CS(=O)(=O)N1CC(CNc2ccc(-c3cccc(C(N)=O)c3)nn2)(c2ncccc2F)C1 [3-[6-({[3-(3-fluoro(2-pyridyl))-1-(methylsulfonyl)azetidin-3-yl]methyl}amino)pyridazin-3-yl]benzamide],D (D=>20 uM)
22,NC(=O)c1cccc(-c2ccc(NCC3(c4ncccc4F)CNC3)nn2)c1 [3-[6-({[3-(3-fluoro-2-pyridyl)azetidin-3-yl]methyl}amino)pyridazin-3-yl]benzamide],D (D=>20 uM)
23,NC(=O)c1cccc(-c2ccc(NCC3(c4ccc(F)cc4)COC3)nn2)c1 [3-[6-({[3-(4-fluorophenyl)oxetan-3-yl]methyl}amino)pyridazin-3-yl]benzamide],D (D=>20 uM)

# Same assay, conditions: median AC1.4 class, procedure of Example 39
row,SMILES,Mean AC1.4
1,CC(C)(CNc1ccc(-c2cccc(C#N)c2)nn1)c1ncccc1Cl [3-(6-{[2-(3-chloro(2-pyridyl))-2-methylpropyl]amino}pyridazin-3-yl)benzenecarbonitrile],B (B=1-10 uM)
2,N#Cc1cccc(-c2ccc(NCC3(c4ccccn4)CCC3)nn2)c1 [3-(6-{[(2-pyridylcyclobutyl)methyl]ami-no}pyridazin-3-yl)benzenecarbonitrile],B (B=1-10 uM)
3,CN(CC1(c2ccccn2)CCC1)c1ccc(-c2cccc(C(N)=O)c2)nn1 [3-(6-{methyl[(2-pyridylcyclobutyl)methyl]ami-no}pyridazin-3-yl)benzamide],D (D=>20 uM)
4,NC(=O)c1cccc(-c2ccc(NC(=O)c3ccccc3)nn2)c1 [3-[6-(phenylcarbonylamino)pyridazin-3-yl]benzamide],D (D=>20 uM)
5,CC(C)(Nc1ccc(-c2cc(C(N)=O)ccc2F)nn1)c1cccc(OC(F)F)n1 [3-[6-({1-[6-(difluoromethoxy)(2-pyridyl)]-isopropyl}amino)pyridazin-3-yl]-4-fluorobenzamide],A (A=<1 uM)
6,CC(C)(Nc1ccc(-c2cccc(C(N)=O)c2)nn1)c1cccc(OC(F)F)n1 [3-[6-({1-[6-(difluoromethoxy)(2-pyridyl)]-isopropyl}amino)pyridazin-3-yl]benzamide],B (B=1-10 uM)
7,NC(=O)c1ccc(O)c(-c2ccc(NC[C@]3(c4ncccc4F)C[C@H](F)C3)nn2)c1 [3-[6-({[3-fluoro-1-(3-fluoro(2-pyridyl))cyclobutyl]methyl}ami-no)pyridazin-3-yl]-4-hydroxybenzamide],B (B=1-10 uM)

# Same assay, conditions: median AC1.4 reported as class; procedure of Example 39
row,SMILES,Mean AC1.4
1,NC(=O)c1cccc(-c2ccc(NC[C@]3(c4ncccc4F)C[C@H](F)C3)nn2)c1O [3-[6-({[3-fluoro-1-(3-fluoro(2-pyridyl))cyclobutyl]methyl}ami-no)pyridazin-3-yl]-2-hydroxybenzamide],A (A=<1 uM)
2,N#Cc1cccc(-c2ccc(NC[C@]3(c4ncccc4F)C[C@H](F)C3)nn2)c1O [3-[6-({[3-fluoro-1-(3-fluoro(2-pyridyl))cyclobutyl]methyl}ami-no)pyridazin-3-yl]-2-hydroxybenzenecarbonitrile],B (B=1-10 uM)
3,O=C(O)c1cccc(-c2ccc(NC[C@]3(c4ncccc4F)C[C@H](F)C3)nn2)c1O [3-[6-({[3-fluoro-1-(3-fluoro(2-pyridyl))cyclobutyl]methyl}ami-no)pyridazin-3-yl]-2-hydroxybenzoic acid],C (C=10-20 uM)
4,COc1c(C(N)=O)cccc1-c1ccc(NC[C@]2(c3ncccc3F)C[C@H](F)C2)nn1 [3-[6-({[3-fluoro-1-(3-fluoro(2-pyridyl))cyclobutyl]methyl}ami-no)pyridazin-3-yl]-2-methoxybenzamide],D (D=>20 uM)
5,COc1c(C#N)cccc1-c1ccc(NC[C@]2(c3ncccc3F)C[C@H](F)C2)nn1 [3-[6-({[3-fluoro-1-(3-fluoro(2-pyridyl))cyclobutyl]methyl}ami-no)pyridazin-3-yl]-2-methoxybenzenecarbonitrile],C (C=10-20 uM)
6,NC(=O)c1cc(-c2ccc(NC[C@]3(c4ncccc4F)C[C@H](F)C3)nn2)cc(C(F)(F)F)c1 [3-[6-({[3-fluoro-1-(3-fluoro(2-pyridyl))cyclobutyl]methyl}ami-no)pyridazin-3-yl]-5-(trifluoromethyl)benzamide],B (B=1-10 uM)
7,NC(=O)c1cc(O)cc(-c2ccc(NC[C@]3(c4ncccc4F)C[C@H](F)C3)nn2)c1 [3-[6-({[3-fluoro-1-(3-fluoro(2-pyridyl))cyclobutyl]methyl}ami-no)pyridazin-3-yl]-5-hydroxybenzamide],A (A=<1 uM)
8,Cc1cc(C(N)=O)cc(-c2ccc(NC[C@]3(c4ncccc4F)C[C@H](F)C3)nn2)c1 [3-[6-({[3-fluoro-1-(3-fluoro(2-pyridyl))cyclobutyl]methyl}ami-no)pyridazin-3-yl]-5-methylbenzamide],B (B=1-10 uM)
